“And” between values parts separate entries of the source, which are not always exact repeats. Equal entries are not always repeated. Where two headings read alike, the source gives them in different places.
Tests used:
large bowel cancer = details: large bowel cancer-bearing mice; cited from earlier work
[1] = tested on: human large bowel cancer cell COLO320DM; test: Example 3 comparison with other gastrin/CCK-B antagonist in COLO320DM bearing mice; type: in vivo; details: 10 days
Method: In human large bowel cancer cell COLO320DM bearing mice, the administration of compound A was started when the tumor volume reached to about 120 mm^3 in a similar manner to that described in the Example 2. Its dose per day was 60 or 200 mg/kg, and the administration period was 10 days. As a comparative compound, (3RS)-N-(1-(1-tert-butylcarbonylmethyl)-2,3-dihydro-2-oxo-5-(2-pyridyl)-1H-1,4-benzodiazepin-3-yl)-N′-(3-(dimethylamino)phenyl)urea whose data on inhibitory effect of pentagastrin-stimulus gastric acid secretion in a dog are disclosed as “compound of Example 38” in the aforementioned WO 93/16999 was administered in the same manner at a dose of 200 mg/kg.
The tumor growth inhibition ratio was calculated in a similar manner to that described in Example 2. The tumor growth inhibition ratio when 60 or 200 mg/kg of the compound A was administered was 20 or 27%, respectively.

[2] = tested on: human pancreatic cancer cell line BxPC-3; test: Example 4 comparison with gemcitabine, tumor growth in BxPC-3 bearing nude mice; type: in vivo
Method: (§1) A total of 3×10^6 cells of a human pancreatic cancer cell line BxPC-3 was injected into the dorsal side skin of female Balb/c nude mice (6 weeks of age). When the tumor volume reached to about 110 mm^3, 60, 200 or 600 mg/kg per day of the compound A was orally administered in a similar manner to that described in Example 2, every day by dividing the daily dose into two doses per day (n=5). Also, 0.5% methylcellulose solution was administered in the same schedule to the control group. The administration period was 14 days.
(§2) As a comparative compound, a known pancreatic cancer therapeutic agent Gemcitabine (GEM) was used in the same test. GEM was intravenously administered at a dose of 60, 120 or 240 mg/kg per day, once in three days. Physiological saline was administered to the control group in the same schedule.
The tumor growth inhibition ratio was calculated by same calculation formula in Example 2.

[3] = Example 4 side effect parameters in BxPC-3 bearing nude mice; type: in vivo
Method: as §1, §2
The tumor growth inhibition ratio in the compound A-treated group is shown in Table 3, and that in the GEM-treated group in Table 4, together with various parameters which indicate the degree of side effects.

human large bowel cancer = details: without exogenous gastrin stimulation, cited from earlier work
[4] = tested on: cancer cell proliferation; details: group of no gastrin stimulation; cited from earlier work
[5] = tested on: human pancreatic cancer cell line BxPC-3; test: Example 1 antitumor action in BxPC-3 bearing Balb/c nude mice; type: in vivo; details: BxPC-3, 200 mg/kg per day p.o. from day after injection, 23 days
Method: (§3) Three to 10×10^6 cells of human pancreatic cancer cell lines (BxPC-3 and PANC-1), human large bowel cancer cell lines (HT29 and COLO320DM) and a human gastric cancer cell line (MKN28) were injected into the dorsal side skin of female Balb/c nude mice. Starting on the next day of the subcutaneous injection of cancer cells, 200 mg/kg per day of the compound A was suspended in 0.5% methylcellulose and orally administered every day by dividing the daily dose into two doses per day. Also, 0.5% methylcellulose solution was administered in the same schedule to the control group. Using calipers, the tumor diameter was measured periodically until the next day of the final administration. The tumor volume and tumor growth inhibition ratio were calculated by the following calculation formulae.
(§4) Tumor volume (mm^3)=½×breadth (mm)^2×length (mm)
(§5) Tumor growth inhibition ratio (%)=[(tumor volume of control group—tumor volume of compound A administration group)/tumor volume of control group]×100

[6] = tested on: human pancreatic cancer cell line PANC-1; test: Example 1 antitumor action in PANC-1 bearing Balb/c nude mice; type: in vivo; details: PANC-1, 200 mg/kg per day p.o., 49 days
Method: as §3, §4, §5

[7] = tested on: human large bowel cancer cell line HT29; test: Example 1 antitumor action in HT29 bearing Balb/c nude mice; type: in vivo; details: HT29, 200 mg/kg per day p.o., 27 days
Method: as §3, §4, §5

[8] = tested on: human large bowel cancer cell line COLO320DM; test: Example 1 antitumor action in COLO320DM bearing Balb/c nude mice; type: in vivo; details: 200 mg/kg per day p.o., 21 days
Method: as §3, §4, §5

[9] = tested on: human gastric cancer cell line MKN28; test: Example 1 antitumor action in MKN28 bearing Balb/c nude mice; type: in vivo; details: MKN28, 200 mg/kg per day p.o., 20 days
Method: as §3, §4, §5

[10] = tested on: human pancreatic cancer cell BxPC-3; test: Example 2 antitumor action in BxPC-3 cancer-bearing mice (established tumor); type: in vivo; details: 21 days, start at about 120 mm^3
Method: (§6) In human pancreatic cancer cell BxPC-3 bearing mice, administration of the compound A was started when the tumor volume reached to about 120 mm^3 in a similar manner to that described in the test example 1. Its dose per day was 200 or 600 mg/kg, and the administration period was 21 days.
The tumor growth inhibition ratio was calculated by the following calculation formula.
Tumor growth inhibition ratio (%)={[(tumor volume of control group on the administration-finished day−tumor volume of control group before commencement of the administration)−(tumor volume of compound A-treated group on the administration-finished day−tumor volume of compound A-treated group before commencement of the administration)]/(tumor volume of control group on the administration-finished day−tumor volume of control group before commencement of the administration)}×100

[11] = Example 2 toxicity (body weight, side effects) in BxPC-3 cancer-bearing mice; type: in vivo
Method: as §6

[12] = tested on: gastrin-stimulated gastric acid secretion; details: dog, 0.01 mg/kg oral administration; cited from earlier work
[13] = daily dose of 600 mg/kg continuously for 21 days

CCCN(CCC)C(=O)C(CCC(=O)O)NC(=O)c1ccccc1 (stereo not drawn) [proglumide]
antitumor effect (large bowel cancer): appropriate antitumor effect
mortality rate of mice (large bowel cancer): reduced

CN(C)c1cccc(NC(=O)NC2N=C(c3ccccn3)c3ccccc3N(CC(=O)C(C)(C)C)C2=O)c1 (racemic) [comparative compound, (3RS)-N-(1-(1-tert-butylcarbonylmethyl)-2,3-dihydro-2-oxo-5-(2-pyridyl)-1H-1,4-benzodiazepin-3-yl)-N′-(3-(dimethylamino)phenyl)urea, reference compound]
tumor growth inhibitory action ([1]; 200 mg/kg): did not show

Nc1ccn([C@@H]2O[C@H](CO)[C@@H](O)C2(F)F)c(=O)n1 [GEM, Gemcitabine, reference compound]
Tumor growth inhibition ratio ([2]; 60 mg/kg i.v. once in three days): 22.2% and 22.2 ± 26.7%
Tumor growth inhibition ratio ([2]; 120 mg/kg i.v. once in three days): 80.2% and 80.2 ± 20.1%
dead cases ([3]; 240 mg/kg i.v. once in three days, n=5): 3/5 dead cases
MTD at 14 days ([3]; female, Balb/c nude, mouse, in vivo, iv, i.v. once in three days, BxPC-3 bearing mice, read-out: MTD (maximum tolerated dose)): 120 mg/kg

C[C@](Cc1c[nH]c2ccccc12)(NC(=O)OC1[C@H]2C[C@@H]3C[C@@H](C[C@H]1C3)C2)C(=O)NC[C@H](NC(=O)CCC(=O)O)c1ccccc1 (stereo partly drawn) [CI-988]
growth inhibitory action (human large bowel cancer; 25 mg/kg oral): showed a growth inhibitory action
growth inhibitory action (human large bowel cancer; 50 mg/kg oral): not found

Cc1cccc(NC(=O)N[C@@H]2N=C(c3ccccc3)c3ccccc3N(C)C2=O)c1 [L-365260]
inhibition of cancer cell proliferation [4]: not found

CNc1cccc(NC(=O)N[C@@H]2N=C(c3ccccn3)c3ccccc3N(CC(=O)C(C)(C)C)C2=O)c1 [compound A, (3R)-N-(1-(1-tert-butylcarbonylmethyl)-2,3-dihydro-2-oxo-5-(2-pyridyl)-1H-1,4-benzodiazepin-3-yl)-N′-(3-(methylamino)phenyl)urea]
Tumor growth inhibition ratio [5]: 65%
Tumor growth inhibition ratio [6]: 52%
Tumor growth inhibition ratio [7]: 36%
Tumor growth inhibition ratio [8]: 47%
Tumor growth inhibition ratio [9]: 31%
Tumor growth inhibition ratio ([10]; 200 mg/kg per day): 48%
Tumor growth inhibition ratio ([10]; 600 mg/kg per day): 79%
Body weight ([11]; 200 mg/kg dose group, on the 21st day): 23.8 ± 0.5 g
Body weight ([11]; 200 mg/kg dose group, the day before commencement of administration): 22.1 ± 0.5 g
Body weight ([11]; 600 mg/kg dose group, on the 21st day): 23.3 ± 0.7 g
Body weight ([11]; 600 mg/kg dose group, the day before commencement of administration): 21.4 ± 0.6 g
influence on the mouse body weight [11, 13]: did not exert influence
side effects [11, 13]: not observed
Tumor growth inhibition ratio ([1]; 60 mg/kg per day): 20%
Tumor growth inhibition ratio ([1]; 200 mg/kg per day): 27%
Tumor growth inhibition ratio ([2]; 60 mg/kg p.o. per day, 14 days): 19.3 ± 23.6%
Tumor growth inhibition ratio ([2]; 200 mg/kg p.o. per day, 14 days): 25.1%
Tumor growth inhibition ratio ([2]; 200 mg/kg p.o. per day, 14 days, listed as Compound A): 25.1 ± 21.1%
Tumor growth inhibition ratio ([2]; 600 mg/kg p.o. per day, 14 days): 78.2 ± 28.3%
inhibition of gastrin-stimulated gastric acid secretion [12]: 50%

— patent US20040138207A1, “Antitumor agents” (priority 2001, published 2004)
